Experimental findings from US5663331A, “Cephalosporin compounds” (Il-Dong Pharm. Co., Ltd., priority 1992, dated 1997) are described below.

Converted amounts (≈) assume the structure as drawn.

What all share (type): cell-based
Experiment [1] deals with Klebsiella pneumoniae ATCC 10031. Nature of the experiment: MIC, two-fold dilution method, Klebsiella pneumoniae ATCC 10031. To be noted: 10^6 CFU per ml, 37° C., 18 to 20 hours; for MIC: ATCC10031, Muller Hinton Broth, read-out: Antibacterial Activity (MIC); for Antibacterial Activity (MIC): Muller Hinton Broth. Summed up:
(§1)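 Lowest concentration inhibiting growth is reported, read after 18 to 20 hours at 37° C. Compound was serially diluted two-fold in Mueller Hinton Broth, with each standard strain inoculated at 10^6 CFU per ml.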

For experiment [2], the system named is Pseudomonas aeurginosa NCTC 10490. In words: MIC, two-fold dilution method, Pseudomonas aeurginosa NCTC 10490. As to conditions: 10^6 CFU per ml, 37° C., 18 to 20 hours; for MIC: NCTC10490, Muller Hinton Broth, read-out: Antibacterial Activity (MIC); for Antibacterial Activity (MIC): Muller Hinton Broth. An outline of the steps:
as §1

For experiment [3], the system named is Bacillus subtilis ATCC 6633. In words: MIC, two-fold dilution method, Bacillus subtilis ATCC 6633. As to conditions: 10^6 CFU per ml, 37° C., 18 to 20 hours; for MIC: ATCC6633, Muller Hinton Broth, read-out: Antibacterial Activity (MIC); for Antibacterial Activity (MIC): Muller Hinton Broth. Summed up: as §1
Experiment [4] has as its system Esherichia coli ATCC 25922. Nature of the experiment: MIC, two-fold dilution method, Esherichia coli ATCC 25922. As to conditions: Muller Hinton Broth, 10^6 CFU per ml, 37° C., 18 to 20 hours; for MIC: read-out: Antibacterial Activity (MIC). Summed up:
as §1

For experiment [5], the system named is Staphylococcus epidermidis ATCC 12228. Nature of the experiment: MIC, two-fold dilution method, Staphylococcus epidermidis ATCC 12228. To be noted: 10^6 CFU per ml, 37° C., 18 to 20 hours; for MIC: ATCC12228, Muller Hinton Broth, read-out: Antibacterial Activity (MIC); for Antibacterial Activity (MIC): Muller Hinton Broth. Summed up:
as §1

Experiment [6] has as its system Streptococcus faecalis ATCC 10541. In words: MIC, two-fold dilution method, Streptococcus faecalis ATCC 10541. To be noted: 10^6 CFU per ml, 37° C., 18 to 20 hours; for MIC: Enterococcus faecalis, ATCC10541, Muller Hinton Broth, read-out: Antibacterial Activity (MIC); for Antibacterial Activity (MIC): Muller Hinton Broth. An outline of the steps:
as §1

Experiment [7] relates to Staphylococcus aureus ATCC 65389. In words: MIC, two-fold dilution method, Staphylococcus aureus ATCC 65389. To be noted: 10^6 CFU per ml, 37° C., 18 to 20 hours; for MIC: ATCC65389, Muller Hinton Broth, read-out: Antibacterial Activity (MIC); for Antibacterial Activity (MIC): Muller Hinton Broth. Summed up: as §1

Consider `C=CCO/N=C(\C(=O)NC1C(=O)N2C(C(=O)[O-])=C(CSc3cc[n+](CC=C)c4cc(N5CCN(CC)CC5)c(F)cc34)CSC12)c1csc(N)n1` (stereo not shown) [Compound I-35, 7-[(Z)-2-(2-aminothiazol-4-yl)-2-(allyloxyimino)acetamido]-3-[1-allyl-6-fluoro-7-(1-ethylpiperazinyl)quinolinium-4-yl]thiomethyl-3-cephem-4-carboxylate], for which the MIC in experiment [1] worked out at 0.78 µg/mL (≈ 1.04 µM); in experiment [2] it was 0.78 µg/mL (≈ 1.04 µM); in experiment [3] it was 0.39 µg/mL (≈ 0.518 µM); in experiment [4], 1.56 µg/mL (≈ 2.07 µM); in experiment [5], 0.78 µg/mL (≈ 1.04 µM); in experiment [6], 0.39 µg/mL (≈ 0.518 µM). Also, the MIC in experiment [7] is 0.78 µg/mL (≈ 1.04 µM).
Regarding `C=CC[n+]1ccc(SCC2=C(C(=O)[O-])N3C(=O)C(NC(=O)/C(=N\OC)c4csc(N)n4)[C@H]3SC2)c2cc(F)c(N3CCNCC3)cc21` (stereo partly shown) [Compound I-13, 7-[(Z)-2-(2-aminothiazol-4-yl)-2-(methoxyimino)acetamido]-3-(1-allyl-6-fluoro-7-piperazinylquinolinium-4-yl)thiomethyl-3-cephem-4-carboxylate], the MIC in experiment [1] is 0.78 µg/mL (≈ 1.12 µM); in experiment [2], 1.56 µg/mL (≈ 2.23 µM); in experiment [3] it was 0.39 µg/mL (≈ 0.558 µM); in experiment [4] it was 3.13 µg/mL (≈ 4.48 µM); in experiment [5], 1.56 µg/mL (≈ 2.23 µM); in experiment [6] it was 0.78 µg/mL (≈ 1.12 µM). Further, in experiment [7], the MIC came out at 1.56 µg/mL (≈ 2.23 µM).
For the compound `C=CCO/N=C(\C(=O)NC1C(=O)N2C(C(=O)[O-])=C(CSc3cc[n+](CC=C)c4cc(N5CCNCC5C)c(F)cc34)CS[C@H]12)c1csc(N)n1` (stereo partly shown) [Compound I-36, 7-[(Z)-2-(2-aminothiazol-4-yl)-2-(allyloxyimino)acetamido]-3-[1-allyl-6-fluoro-7-(2-methylpiperazinyl)quinolinium-4-yl]thiomethyl-3-cephem4-carboxylate], the “Antibacterial Activity (MIC)” value in experiment [1] turned out to be 0.78 µg/mL; in experiment [2], 1.56 µg/mL; in experiment [3] it was 0.39 µg/mL; in experiment [4], 1.56 µg/mL; in experiment [5], 1.56 µg/mL; in experiment [6] it was 0.39 µg/mL. Further, the “Antibacterial Activity (MIC)” value in experiment [7] stood at 0.78 µg/mL.
Take `C#CCO/N=C(\C(=O)NC1C(=O)N2C(C(=O)[O-])=C(CSc3cc[n+](C4CC4)c4cc(N5CCNCC5C)c(F)cc34)CS[C@H]12)c1csc(N)n1` (stereo partly shown) [Compound I-44, 7-[(Z)-2-(2-aminothiazol-4-yl)-2-(propargyloxyimino)acetamido]-3-[1-cyclopropyl-6-fluoro-7-(2-methylpiperazinyl)quinolinium-4-yl]thiomethyl-3-cephem-4-carboxylate]: the “Antibacterial Activity (MIC)” value in experiment [1] came out at 0.78 µg/mL; in experiment [2] it was 1.56 µg/mL; in experiment [3] it was 0.05 µg/mL; in experiment [4], 1.56 µg/mL; in experiment [5] it was 0.2 µg/mL; in experiment [6], 0.2 µg/mL. In addition, the “Antibacterial Activity (MIC)” value in experiment [7] amounted to 0.39 µg/mL.
As for `CC1CNCCN1c1cc2c(cc1F)c(SCC1=C(C(=O)[O-])N3C(=O)C(NC(=O)/C(=N\OC(C)(C)C(=O)O)c4csc(N)n4)[C@H]3SC1)cc[n+]2C` (stereo partly shown) [Compound I-56, 7-[(Z)-2-(2-aminothiazol-4-yl)-2-(2-carboxyprop-2-oxyimino)acetamido]-3-[1-methyl-6-fluoro-7-(2-methylpiperazinyl)quinolinium-4-yl]thiomethyl-3-cephem-4-carboxylate], the “Antibacterial Activity (MIC)” value in experiment [1] stood at 0.39 µg/mL; in experiment [2], 0.78 µg/mL; in experiment [3], 0.2 µg/mL; in experiment [4], 0.39 µg/mL; in experiment [5] it was 0.78 µg/mL; in experiment [6] it was 0.39 µg/mL. Also, the “Antibacterial Activity (MIC)” value in experiment [7] came to 0.78 µg/mL.
With `CO/N=C(\C(=O)NC1C(=O)N2C(C(=O)[O-])=C(CSc3cc[n+](C)c4cc(N5CCNCC5)c(F)cc34)CSC12)c1csc(N)n1` (stereo not shown) [Compound I-1, 7-[(Z)-2-(2-aminothiazol-4-yl)-2-(methoxyimino)acetamide]-3-(1-methyl-6-fluoro-7-piperazinylquinolinium-4-yl)thiomethyl-3-cephem-4-carboxylate], the MIC is 0.2 µg/mL (≈ 0.297 µM) in experiment [1]; 1.56 µg/mL (≈ 2.32 µM) in experiment [2]; 0.2 µg/mL (≈ 0.297 µM) in experiment [3]; 0.78 µg/mL (≈ 1.16 µM) in experiment [4]; 0.1 µg/mL (≈ 0.149 µM) in experiment [5]; 0.05 µg/mL (≈ 0.0743 µM) in experiment [6]. Besides, in experiment [7], the MIC was 0.2 µg/mL (≈ 0.297 µM).
Consider `C=CCO/N=C(\C(=O)NC1C(=O)N2C(C(=O)[O-])=C(CSc3cc[n+](C)c4cc(N5CCN(C)CC5)c(F)cc34)CSC12)c1csc(N)n1` (stereo not shown) [Compound I-22, 7-[(Z)-2-(2-aminothiazol-4-yl)-2-(allyloxyimino)acetamido]-3-[1-methyl-6-fluoro-7-(N-methylpiperazinyl)quinolinium-4-yl]thiomethyl-3-cephem-4-carboxylate], for which the MIC in experiment [1] worked out at 0.39 µg/mL (≈ 0.547 µM); in experiment [2] it was 3.13 µg/mL (≈ 4.39 µM); in experiment [3], 0.39 µg/mL (≈ 0.547 µM); in experiment [4], 6.25 µg/mL (≈ 8.77 µM); in experiment [5], 0.1 µg/mL (≈ 0.14 µM); in experiment [6] it was 0.013 µg/mL (≈ 0.0182 µM). Also, the MIC in experiment [7] was found to be 0.2 µg/mL (≈ 0.281 µM).
With `C#CCO/N=C(\C(=O)NC1C(=O)N2C(C(=O)[O-])=C(CSc3cc[n+](C4CC4)c4cc(N5CCN(CC)CC5)c(F)cc34)CSC12)c1csc(N)n1` (stereo not shown) [Compound I-43], the minimal inhibitory concentration (MIC) in experiment [1] was 0.78 µg/mL (≈ 1.04 µM); in experiment [2], 0.78 µg/mL (≈ 1.04 µM); in experiment [3], 0.1 µg/mL (≈ 0.133 µM); in experiment [4], 1.56 µg/mL (≈ 2.08 µM); in experiment [5] it was 0.1 µg/mL (≈ 0.133 µM); in experiment [6] it was 0.05 µg/mL (≈ 0.0666 µM). Moreover, in experiment [7], the MIC worked out at 0.1 µg/mL (≈ 0.133 µM).
As to `C=CCO/N=C(\C(=O)NC1C(=O)N2C(C(=O)[O-])=C(CSc3cc[n+](CC)c4cc(N5CCN(C)CC5)c(F)cc34)CSC12)c1csc(N)n1` (stereo not shown) [Compound I-30, 7-[(Z)-2-(2-aminothiazol-4-yl)-2-(allyloxyimino)acetamido]-3-[1-ethyl-6-fluoro-7-(N-methylpiperazinyl)quinolinium-4-yl]thiomethyl-3-cephem-4-carboxylate], the MIC in experiment [1] is 0.78 µg/mL (≈ 1.07 µM); in experiment [2], 6.25 µg/mL (≈ 8.6 µM); in experiment [3] it was 0.39 µg/mL (≈ 0.537 µM); in experiment [4], 3.13 µg/mL (≈ 4.31 µM); in experiment [5], 0.78 µg/mL (≈ 1.07 µM); in experiment [6], 0.39 µg/mL (≈ 0.537 µM). For the same compound, the MIC in experiment [7] was determined as 1.56 µg/mL (≈ 2.15 µM).
Regarding `CO/N=C(\C(=O)NC1C(=O)N2C(C(=O)[O-])=C(CSc3cc[n+](C4CC4)c4cc(N5CCNCC5)c(F)cc34)CS[C@H]12)c1csc(N)n1` (stereo partly shown) [Compound I-5, 7-[(Z)-2-(2-aminothiazol-4-yl)-2-(methoxyimino)acetamido]-3-(1-cyclopropyl-6-fluoro-7-piperazinylquinolinium-4-yl)thiomethyl-3-cephem-4-carboxylate], the MIC came to 0.1 µg/mL (≈ 0.143 µM) in experiment [1]; 3.13 µg/mL (≈ 4.48 µM) in experiment [2]; 0.39 µg/mL (≈ 0.558 µM) in experiment [3]; 12.5 µg/mL (≈ 17.9 µM) in experiment [4]; 0.78 µg/mL (≈ 1.12 µM) in experiment [5]; 0.39 µg/mL (≈ 0.558 µM) in experiment [6]. The minimum inhibitory concentration (MIC) in experiment [7] is 1.56 µg/mL (≈ 2.23 µM).
